The series can be described thus: gradient 5% acetonitrile 3 min, to 50% in 2 min, to 85% in 15 min, held 3 min, 100 µL/min. The conditions noted are these: column: Zorbax Extend-C18 2.1 x 50 mm; eluents: water / acetonitrile, 0.1% formic acid. The procedure, abridged: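 Data were gathered over 3 months by HPLC coupled to a quadrupole time-of-flight mass spectrometer, operated in positive and negative ionization mode. Mixtures of ~100 pure standards ran on a Zorbax Extend-C18 column (2.1 × 50 mm, 1.8 μm) at 100 μL/min, with water and acetonitrile each containing 0.1% formic acid and dead and dwell volumes of 40 μL and 900 μL. Retention time was read from adduct peaks picked by computer and checked manually.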
As to `CC(C)CCNC(=O)C1(C)Cn2nc(C(=O)NCCc3c[nH]c4ccccc34)cc2C(=O)N1C` (stereo not drawn), the RP-LC retention time is 786 s.
To `CCOC(=O)C1=C(CN2CCC(C)CC2)NC(=O)NC1c1ccc(C)cc1` (stereo not drawn) belongs 656 s.
To `O=C(NCc1cccs1)NC1CC(=O)N(C2CC2)C1` (stereo not drawn) belongs 589 s.
The same measure for `O=S(=O)(c1cccc2nsnc12)N1CCc2nc(-c3ccc(F)cc3)ncc2C1`: 1040 s; for `CCOC(=O)c1c(C)[nH]c(CCC(=O)Nc2ccc(C(C)=O)cc2)c1C`: 800 s; for `CCOC(=O)N1CCN(c2cc(C(=O)O)c3cc(NC(=O)c4ccccc4F)ccc3n2)CC1`: 628 s.
`CCCCN1CCN(C(=O)C2CC(=O)N(c3ccc4c(c3)CCN4C(=O)C3CC3)C2)CC1` (stereo not drawn): the RP-LC retention time was 599 s.
The same measure for `COc1ccc(-c2nc3cnccn3c2Nc2cc(C)cc(C)c2)cc1`: 952 s; for `Cc1cccc(-c2noc(Cn3nc(-c4ccc(F)cc4)ccc3=O)n2)c1`: 1060 s.
In turn, `CCCn1c(=O)c2cc(C(=O)NCc3ccc(F)cc3Cl)nn2c2ccccc21` had an RP-LC retention time of 834 s.
`CC(C)NC(=O)C1Cc2cc(C(F)(F)F)ccc2N2CCN(c3ccccc3)CC12` (stereo not drawn) came in with an RP-LC retention time of 1100 s.
To `COCCOC1CCC12CCN(C(=O)c1cc(C)oc1C)CC2` (stereo not drawn) belongs 811 s; to `CCSc1nc2ccc(NS(=O)(=O)c3cccc4nsnc34)cc2s1`, 977 s.
`CCC(C)NC(=O)c1cnn(-c2ccc(-c3nc(C4CC4)no3)cn2)c1C` (stereo not drawn): the RP-LC retention time worked out at 899 s.
To `CCN(CCNC(=O)c1cc2c(s1)CN(C(C)C)C2)c1cccc(C)c1` belongs 573 s; to `O=S(=O)(c1ccccc1F)N1CCN(Cc2cccc(F)c2)C2(CCOCC2)C1`, 807 s.
To `CCCn1cc(S(=O)(=O)Nc2cc(C)ccc2C)c2cccnc21` belongs 960 s.
The same measure for `Cc1ccc(-c2noc(Cn3ccn(-c4cc(C)cc(C)c4)c(=O)c3=O)n2)cc1`: 612 s.
Take `CC1CCN(CCCNC(=O)C(=O)Nc2ccc3nc4n(c(=O)c3c2)CCCCC4)CC1`: the RP-LC retention time was determined as 615 s.
The same measure for `CCOC(=O)CNC(=O)N1CCc2c(c(C(=O)N3CCCCC3)nn2C)C1`: 643 s; for `CCOc1ccc(-c2cc(C(=O)N3CCN(c4ccccn4)CC3)c3ccccc3n2)cc1`: 726 s.
To `O=C(O)c1ccc(N2CCN(c3ccccn3)CC2)c(NS(=O)(=O)c2ccc(F)c(F)c2)c1` belongs 649 s; to `CCN(CC)CCCNC(=O)C1CCCN(c2nnc(C)c3c(C)n(-c4ccccc4)nc23)C1` (stereo not drawn), 556 s; to `O=C(CC1CCCC1)N1CCN(CCn2cccn2)CC1`, 560 s.
The same measure for `Cc1ccccc1OCC1c2ccsc2CCN1C(=O)CN(CC1CCCO1)C(=O)NC(C)(C)C` (stereo not drawn): 1140 s.
In turn, `Cc1cccc2nnc(N3CCC(C(=O)Nc4cccc(F)c4)CC3)n12` had an RP-LC retention time of 697 s.
The same measure for `CCN1CCN(C(=O)C2CCN(S(=O)(=O)c3c(C)nn(-c4ccc(F)cc4)c3C)CC2)CC1`: 641 s.
To `Cc1nc(-c2ccc(N3CCN(C(=O)c4ccc(Br)o4)CC3)cc2)no1` belongs 912 s; to `CNCc1ccc(-c2cccc(C(F)(F)F)c2)o1`, 673 s.
The same measure for `CCN1CCN(CCCNC(=O)c2cc(-c3ccc(C)c(C)c3)[nH]c2C)CC1`: 595 s; for `CC(C)Cc1nc(-c2ccccc2)oc1CC(=O)NCc1ccc(F)c(Cl)c1`: 1080 s.
Regarding `COc1cc(NC(=O)CN2C(=O)CCc3cc(Br)ccc32)cc(OC)c1OC`, the RP-LC retention time is 820 s.
The same measure for `CSc1nc2ccc(NC(=O)c3cccs3)cc2s1`: 837 s.

The values are drawn from the METLIN SMRT retention time set (Domingo-Almenara et al. 2019).
